From US4191738A, “Immunoassay for N-desmethyldiazepam” (Hoffmann-La Roche Inc., priority 1978, dated 1980)
Several values for one entry are separate records, joined by “and”; a condition that tells them apart may be missing. Equal entries are not always repeated.

Columns and labels:
[1] = test system: antiserum to N-desmethyldiazepam; assay: RIA cross-reactivity with the antiserum to N-desmethyldiazepam; type: binding, New Zealand white rabbit; settings: for interference (cross-reactivity in words): RIA antiserum to N-desmethyldiazepam; for % Cross-reaction: determined at 50% inhibition of antibody-bound ^3 H-N-desmethyldiazepam
Description: (§1) Two New Zealand white rabbits were immunized by intradermal injection of the immunogen as an emulsion in Freund's complete adjuvant (1 mg/ml) using the protocol of Dixon et al. supra. The animals were then boosted at monthly intervals by intravenous and subcutaneous injection of 100 μg of the immunogen as a solution in isotonic saline via both routes. Serum was harvested at 10 to 14 days following each booster and stored at -20° C.
The assay was carried out in 12×75 mm glass tubes using 0.01 M Tris buffer (pH 7.5) containing 0.9% NaCl and 0.1% sodium azide. A calibration curve was generated by addition of ^3 H-N-desmethyldiazepam (15,000 cpm) in 0.5 ml of buffer to tubes containing 0.5 to 20 ng of unlabelled N-desmethyldiazepam in 50 μl of control plasma or blood followed by 0.4 ml of suitably diluted antiserum. Appropriate controls were included to determine nonspecific (i.e. absence of antiserum) and specific binding of the tracer. Following incubation at room temperature for 0.5 to 1 hr, an equal volume (1 ml) of saturated ammonium sulfate (adjusted to pH 7.5 with 5 N NaOH) was added to precipitate antibody-bound radioligand. The mixture was vortexed and after standing for 10 min at 4° C. in a refrigerated centrifuge, the tubes were centrifuged at 2500×g for 20 min. The supernate was removed by aspiration and the precipitate, containing the antibody-bound radioligand, dissolved in 0.4 ml of water. (When whole blood samples were assayed, the precipitate was washed twice with 1 ml of 50% saturated ammonium sulfate prior to its dissolution in water. This procedure removed virtually all of the heme proteins which might otherwise interfere with the subsequent liquid scintillation counting procedure.) After the addition of 3 ml of Aquasol (New England Nuclear, Boston, Mass. 02118) each tube was vortexed immediately to give a clear solution, capped with a Caplug (size 5X, Protective Closures Co., Inc., Buffalo, N.Y. 14207) and the tube counted directly as described by Dixon and Cohen, Clin. Chem, 22, 1746 (1976) in a modified liquid scintillation counter (Packard Tri-Carb, Model 3255, Packard Instrument Co., Ill. 60515). The counting efficiency for tritium under these conditions was 32%.
All samples were assayed in duplicate and the data calculated as outlined by Robard, Clin. Chem. 20, 1255 (1970) using a digital computer for iterative weighted linear regression analysis of logit B/Bo versus log dose where B and Bo are the amounts of antibody-bound radioligand in the presence and absence of unlabelled drug, respectively. Both B and Bo were corrected for nonspecific binding.
The specificity of the RIA was established by determination of the extent of cross-reactivity of a number of potential competitors with the antiserum and by comparison of the RIA method with the EC-GC procedure of de Silva et al., Anal. Chem. 48, 10 (1976).
*Determined at 50% inhibition of antibodybound ^3

[2] = test system: antibodies elicited by N-desmethyldiazepam-bovine gamma globulin conjugate; settings: 3'-carboxypropyl linked conjugate, U.S. Pat. No. 4,046,636 Example 8; cited from earlier work
[3] = test system: antiserum to N-desmethyldiazepam; assay: RIA calibration, binding of ^3 H-N-desmethyldiazepam to antiserum, sensitivity and precision; parameters: species or system New Zealand white rabbit
Description: as §1
The assay was carried out in 12×75 mm glass tubes using 0.01 M Tris buffer (pH 7.5) containing 0.9% NaCl and 0.1% sodium azide. […] (When whole blood samples were assayed, the precipitate was washed twice with 1 ml of 50% saturated ammonium sulfate prior to its dissolution in water. This procedure removed virtually all of the heme proteins which might otherwise interfere with the subsequent liquid scintillation counting procedure.) After the addition of 3 ml of Aquasol (New England Nuclear, Boston, Mass. 02118) each tube was vortexed immediately to give a clear solution, capped with a Caplug (size 5X, Protective Closures Co., Inc., Buffalo, N.Y. 14207) and the tube counted directly as described by Dixon and Cohen, Clin. Chem, 22, 1746 (1976) in a modified liquid scintillation counter (Packard Tri-Carb, Model 3255, Packard Instrument Co., Ill. […]

[4] = cited from earlier work

Compound | % Cross-reaction [1] | cross-reaction with prior-art antibodies [2] | further results
CN(C)CCC=C1c2ccccc2CCc2ccccc21 [Amitriptyline] | < 0.01% | – | interference (cross-reactivity in words) [1]: negligible interference; % Cross-reaction ([1]; listed as amitriptyline): less than 1%
O=C(O)C1N=C(c2ccccc2)c2cc(Cl)ccc2NC1=O (stereo not shown) [Clorazepate] | > 50% | – | % Cross-reaction ([1]; listed as clorazepate): greater than 50%
CN1C(=O)CN=C(c2ccccc2)c2cc(Cl)ccc21 [Diazepam] | 0.6% and 0.5% | cross-react strongly | % Cross-reaction ([1]; listed as diazepam): less than 1%
CNC1=Nc2ccc(Cl)cc2C(c2ccccc2)=[N+]([O-])C1 [Chlordiazepoxide] | 0.2% | cross-react strongly | % Cross-reaction ([1]; listed as chlordiazepoxide): less than 1%
O=C1CN=C(c2ccccc2Cl)c2cc([N+](=O)[O-])ccc2N1 [Clonazepam] | 0.3% | – | interference (cross-reactivity in words) [1]: negligible interference; % Cross-reaction ([1]; listed as clonazepam): less than 1%
^3 H-N-desmethyldiazepam | – | – | added radioligand bound by antiserum ([3]; 0.5 μl of antiserum, after second booster immunization): approximately 50%
O=C1CN=C(c2ccccc2)c2cc(Cl)ccc2N1 [N-desmethyldiazepam] | 100% | cross-react strongly | inhibition of binding of the radioligand to the antiserum ([3]; 0.5 ng standard, plasma): greater than 10%
O=C1Nc2ccc(Cl)cc2C(c2ccccc2)=NC1O (stereo not shown) [Oxazepam] | 5.5% | cross-react strongly | presence in plasma as metabolite of diazepam and clorazepate [4]: negligible quantities
CNCCC=C1c2ccccc2CCc2ccccc21 [Nortriptyline] | < 0.01% | – | –
O=C1C[N+]([O-])=C(c2ccccc2)c2cc(Cl)ccc2N1 [Demoxepam] | 0.6% | – | % Cross-reaction ([1]; listed as demoxepam): less than 1%
Nc1ccc2c(c1)C(c1ccccc1Cl)=NCC(=O)N2 [7-Aminoclonazepam] | 0.07% | – | –
